The subject of one series is smooth muscle cell. The following applies: after serum stimulation; cited from earlier work.
Series [1] has as its target T1, adenosine 2B receptor (A2BR) (Homo sapiens, UniProt P29275).
T1 sequence (P29275 1-332): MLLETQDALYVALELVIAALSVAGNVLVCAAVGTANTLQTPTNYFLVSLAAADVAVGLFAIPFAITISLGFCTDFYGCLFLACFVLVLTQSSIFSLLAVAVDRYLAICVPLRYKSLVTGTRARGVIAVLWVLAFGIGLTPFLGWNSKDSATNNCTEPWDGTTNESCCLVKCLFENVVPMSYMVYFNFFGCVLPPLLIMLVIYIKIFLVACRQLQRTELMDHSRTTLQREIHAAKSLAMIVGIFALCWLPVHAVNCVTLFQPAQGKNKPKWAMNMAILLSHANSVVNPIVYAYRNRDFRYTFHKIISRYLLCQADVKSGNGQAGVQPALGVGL
The series is described as follows: cAMP accumulation in response to receptor agonist (cAMP radioimmunoassay) in Ctrl-PASMCs. It is filed as cell-based. Particulars: agonist 1 μM, 10 min treatment. On the technique in general: Changes in cAMP serve as a functional read-out for many G protein-coupled receptors.
Description: (§1) Control-PASMCs, PAH-PASMCs or HEK 293 cells were seeded at 30,000 cells/well in a 24-well plate. […] 10 uM FSK (alone) was used as a positive control. After the incubations, the media was aspirated and 150 μL of 7.5% trichloroacetic acid (TCA) was added to each well.
(§2) Assay tubes were filled with 1 mL of 10 mM sodium acetate buffer (pH 4.75) and a standard curve was constructed by serial dilution of stock 5 μM cAMP (Millipore, Billerica, Mass.). An appropriate amount of sample was added to the assay tubes and the samples were acetylated by addition of 20 μL triethylamine (Sigma) and 10 μl acetic anhydride (Sigma). 100 μL of the sodium acetate buffer was added to each well of a 96-well filter plate to prepare the plate and then was removed by vacuum. 50 μL of diluted, acetylated sample was added to each well along with 25 μL diluted antibody [1:1000, 6 μL primary cAMP antibody (Millipore) in 6 mL γ-globulin buffer (100 mg human γ-globulin/100 mL 50 mM NaAc pH 4.75)] and 25 μL diluted ^125I radioactivity [16 acetylated adenosine 3′,5′-cyclic phosphoric acid, 2′-O-succinyl [^125I]-iodotyrosine methyl ester (PerkinElmer) in 3 mL γ-globulin buffer so that 0.001 mCi of ^125I could be added to each sample. The 96-well filter plate containing the sample was incubated overnight at 4° C. […]

Series [2] deals with Adult Sprague-Dawley rats. Nature of the series: monocrotaline-treated rat model, right ventricular hypertrophy (Fulton Index). Particulars: MCT 60 mg/kg once intraperitoneally, 2 weeks, control rats 0.20. The protocol:
Adult Sprague-Dawley rats (250-300 g, male) were injected once intraperitoneally with MCT (60 mg/kg) and sacrificed 2 weeks later. Right ventricular hypertrophy was assessed to determine the development of PAH. It was evaluated as the ratio of the weight of the right ventricle to that of the left ventricle plus the septum (Fulton Index). […] This model is commonly used and approved as a valid model of PAH.^42,43 All animals were cared for in compliance with the guiding principles and approved by the UCSD Institutional Animal Care and Use Committee.

The test system of the next series is GPR75. The following applies: cited from earlier work.
Series [3] has as its target prostaglandin E2 receptor (EP2R) (Homo sapiens, UniProt P43116). The series is described as follows: cAMP accumulation in response to receptor agonist (cAMP radioimmunoassay) in Ctrl-PASMCs. The following applies: agonist 1 μM, 10 min treatment.
Description: as §1, §2
Series [4] concerns the target prostacyclin receptor (IPR) (Homo sapiens, UniProt P43119). The series is described as above. The series is classed as cell-based. The following applies: agonist 10 μM, 10 min treatment.
Description: as §1, §2
For series [5] the following is noted: oxytocin 0.2 units/kg; cited from earlier work.
The test system of the next series is Ctrl-PASMCs. The series is described as follows: [3H]thymidine incorporation (DNA synthesis, proliferation) of PASMCs with GPCR agonists. It is filed as cell-based, human. As to the method: GPCR agonists/antagonists/GPR75 antibody in the absence or presence of 200 μM IBMX and [^3H] thymidine (1 μCi/ml) were added to the cells for 24-48 hr. Following incubation, cells were washed with a large volume of cold phosphate buffer saline (PBS) and then twice with a large volume of cold 7.5% TCA. The precipitated material was dissolved with 0.5 M NaOH and combined with 3 mL of scintillation fluid (Ecoscint O, National Diagnostics) and radioactivity was determined using a liquid scintillation counter (Beckman Coulter LS 1801).
(In general: Dividing cells build labelled thymidine or BrdU into new DNA.)

In a further series the target is T2, oxytocin receptor (Homo sapiens, UniProt P30559).
T2 construct: the oxytocin receptor is expressed on the membrane of Ctrl-PASMCs; endogenous in cells; host or cells: Ctrl-PASMCs (primary human pulmonary artery smooth muscle cells)
T2 sequence (P30559 1-389): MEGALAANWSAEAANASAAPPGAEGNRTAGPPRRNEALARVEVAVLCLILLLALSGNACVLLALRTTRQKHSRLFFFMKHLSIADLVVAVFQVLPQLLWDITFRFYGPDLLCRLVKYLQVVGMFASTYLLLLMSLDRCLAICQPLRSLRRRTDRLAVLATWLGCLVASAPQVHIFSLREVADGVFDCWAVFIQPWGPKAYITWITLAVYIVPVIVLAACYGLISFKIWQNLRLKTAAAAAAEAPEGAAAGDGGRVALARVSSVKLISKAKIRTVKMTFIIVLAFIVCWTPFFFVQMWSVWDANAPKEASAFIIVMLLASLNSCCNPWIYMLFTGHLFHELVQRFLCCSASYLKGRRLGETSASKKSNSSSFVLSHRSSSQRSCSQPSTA
The series is described as follows: forskolin-stimulated cAMP levels in Ctrl-PASMCs with oxytocin. It is filed as cell-based. Particulars: 0.1 nM-10 μM, 10 min, FIG. 4D.

The target of series [6] is gastric inhibitory polypeptide receptor (human) (UniProt P48546). The series is described as follows: cell-based or functional assay.
The target in series [7] is T3, gastric inhibitory polypeptide receptor (GIPR) (Homo sapiens, UniProt P48546).
T3 sequence (P48546 22-466): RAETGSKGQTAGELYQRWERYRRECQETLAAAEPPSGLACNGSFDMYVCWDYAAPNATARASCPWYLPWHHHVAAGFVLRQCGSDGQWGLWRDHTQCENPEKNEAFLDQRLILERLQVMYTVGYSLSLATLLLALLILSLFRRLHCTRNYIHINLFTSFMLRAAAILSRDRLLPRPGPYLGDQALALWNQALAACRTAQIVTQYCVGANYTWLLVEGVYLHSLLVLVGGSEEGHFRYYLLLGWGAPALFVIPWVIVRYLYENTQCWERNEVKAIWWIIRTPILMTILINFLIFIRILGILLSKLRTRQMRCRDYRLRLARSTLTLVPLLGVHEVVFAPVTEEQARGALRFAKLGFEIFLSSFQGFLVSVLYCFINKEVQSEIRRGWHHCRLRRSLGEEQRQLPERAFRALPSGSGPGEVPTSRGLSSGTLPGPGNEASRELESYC
The series is described as follows: cAMP accumulation in response to receptor agonist (cAMP radioimmunoassay) in Ctrl-PASMCs. The following applies: agonist 1 μM, 10 min treatment.
Description: as §1, §2

The test system of another series is human PASMCs. Particulars: cited from earlier work.
The test system of another series is PAH-patients. Particulars: chronic inhalation; n=8 PAH-patients; cited from earlier work.
Series [8] addresses vasoactive intestinal peptide receptor 1 (human) (UniProt P32241). Nature of the series: cell-based or functional assay.
Setting [9] is: HEK293 cells overexpressing GPR75.

vasoactive intestinal peptide receptor 1 (human), sequence (P32241 31-457): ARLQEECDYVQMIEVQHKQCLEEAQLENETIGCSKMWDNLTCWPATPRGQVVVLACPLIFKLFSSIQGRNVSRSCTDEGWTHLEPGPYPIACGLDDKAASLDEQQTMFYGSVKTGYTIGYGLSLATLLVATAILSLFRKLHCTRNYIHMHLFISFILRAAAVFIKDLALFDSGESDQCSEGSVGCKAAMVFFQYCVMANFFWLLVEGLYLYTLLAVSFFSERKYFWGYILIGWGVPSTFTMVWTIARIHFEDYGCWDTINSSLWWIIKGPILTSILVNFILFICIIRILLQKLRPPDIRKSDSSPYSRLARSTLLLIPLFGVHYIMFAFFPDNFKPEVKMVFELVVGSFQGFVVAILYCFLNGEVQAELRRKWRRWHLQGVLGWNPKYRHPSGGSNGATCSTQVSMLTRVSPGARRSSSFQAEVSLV
prostaglandin E2 receptor (EP2R), sequence (P43116 whole entry): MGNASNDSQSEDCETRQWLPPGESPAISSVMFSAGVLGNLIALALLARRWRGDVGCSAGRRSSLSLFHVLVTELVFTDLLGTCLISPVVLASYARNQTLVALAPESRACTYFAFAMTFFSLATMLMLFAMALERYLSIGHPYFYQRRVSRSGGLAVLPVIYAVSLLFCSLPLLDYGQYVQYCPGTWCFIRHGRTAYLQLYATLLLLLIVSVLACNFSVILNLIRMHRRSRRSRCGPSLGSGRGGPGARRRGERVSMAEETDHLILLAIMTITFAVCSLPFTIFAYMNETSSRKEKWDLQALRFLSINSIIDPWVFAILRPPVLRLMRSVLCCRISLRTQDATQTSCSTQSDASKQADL
prostacyclin receptor (IPR), sequence (P43119 whole entry): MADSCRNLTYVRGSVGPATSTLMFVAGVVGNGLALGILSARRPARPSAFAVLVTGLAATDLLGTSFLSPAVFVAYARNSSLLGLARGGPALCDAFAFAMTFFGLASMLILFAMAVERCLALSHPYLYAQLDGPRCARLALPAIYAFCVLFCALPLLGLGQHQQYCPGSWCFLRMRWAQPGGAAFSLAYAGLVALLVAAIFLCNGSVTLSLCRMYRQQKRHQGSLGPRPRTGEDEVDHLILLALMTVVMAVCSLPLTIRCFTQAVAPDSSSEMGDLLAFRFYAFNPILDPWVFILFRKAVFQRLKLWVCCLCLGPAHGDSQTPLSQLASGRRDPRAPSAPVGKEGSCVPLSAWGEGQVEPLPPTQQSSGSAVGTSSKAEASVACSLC
Description for oxytocin receptor: as §1, §2

For the molecule `Nc1ncnc2c1nc(Br)n2[C@@H]1O[C@@H]2COP(=O)(O)O[C@H]2[C@H]1O` [8Br-cAMP], in the series with smooth muscle cell, the “percentage of cells in the S phase of the cell cycle” value is on record as “reduced”.

The molecule `Nc1nc(Nc2ccccc2)nc2c1ncn2[C@@H]1O[C@H](CO)[C@@H](O)[C@H]1O` [CV1808] registered a cAMP accumulation in [1] of 0.6 fmol cAMP/cell/10 min.

As for `C[C@H]1C(=O)O[C@@H]2CCN3CC=C(COC(=O)[C@](C)(O)[C@]1(C)O)[C@H]23` [MCT, Monocrotaline], in series [2], the “Fulton Index (weight of right ventricle / left ventricle plus septum)” value worked out at 0.34.

Consider `COc1ccc2c(c1)CC[C@@H]1[C@@H]2CC[C@]2(C)[C@@H](NCCCCCCN3C(=O)C=CC3=O)CC[C@@H]12` [U73122], for which, in the series with GPR75 (GPR75-HEK293 cells, PLC inhibitor), the “RANTES-mediated increase in Ca2+ mobilization” value is listed as “block”.

`CCCC1([C@H](O)C/C=C/[C@H]2[C@H](O)CC(=O)[C@@H]2CCCCCCC(=O)OC)CCC1` [butaprost]: the cAMP accumulation in [3] amounted to 0.4 fmol cAMP/cell/10 min.

With `CCCCC[C@H](O)/C=C/[C@@H]1[C@H]2C/C(=C/CCCC(=O)O)O[C@H]2C[C@H]1O` [epoprostenol], in series [4], the cAMP accumulation came out at 0.4 fmol cAMP/cell/10 min.

Turning to `CC[C@H](C)[C@@H]1NC(=O)[C@H](Cc2ccc(O)cc2)NC(=O)[C@@H](N)CSSC[C@@H](C(=O)N2CCC[C@H]2C(=O)N[C@@H](CC(C)C)C(=O)NCC(N)=O)NC(=O)[C@H](CC(N)=O)NC(=O)[C@H](CCC(N)=O)NC1=O` [oxytocin], in series [5], the “mean PAP” value was “increases” and the “pulmonary vascular resistance (PVR)” value is reported as “increases”. Also, the PASMC proliferation result with Ctrl-PASMCs (0.1 nM-10 μM, cells in serum free media over 24 hr, FIG. 4D) is listed as “promoted PASMC proliferation”. Also, on oxytocin receptor, the “cAMP accumulation (forskolin-stimulated)” value is given as “decreased cAMP accumulation”.

“GIP (from UniProt P09681 52-93) (peptide)” returned a cAMP accumulation (fmol cAMP/cell/10 min treatment with agonist) in Ctrl-PASMCs at 1 µM GIP (fmol cAMP/cell/10 min) in [6] of 0.2.

“GIP: receptor agonist used for the gastric inhibitory polypeptide receptor (GIPR)” showed a cAMP accumulation in [7] of 0.2 fmol cAMP/cell/10 min.

Turning to Neuropeptide Y, the “proliferation of human PASMCs” value with human PASMCs is on record as “stimulates proliferation”.

On to Vasoactive Intestinal Peptide [VIP], for which, in the series with Ctrl-PASMCs (0.1 nM-10 μM VIP, FIG. 4C), the “decrease of PASMC proliferation” value is recorded as “roughly 50%”. Moreover, in the series with PAH-patients, the exercise capacity result is reported as “improve” and the hemodynamics result is reported as “improve”.

For the molecule “vasoactive intestinal peptide (from UniProt P01282 125-152)”, in series [8], the cAMP accumulation (fmol cAMP/cell/10 min treatment with agonist) in Ctrl-PASMCs at 1 µM VIP (fmol cAMP/cell/10 min) was found to be 0.2 and the decrease in proliferation of PASMCs (0.1 nM-10 µM VIP) was found to be 50%.

B1: RANTES: Regulated upon Activation, Normal T-cell Expressed, and Secreted chemokine; proposed ligand for GPR75 (protein, UniProt P13501 24-91, looked up)
C-C motif chemokine 5: SPYSSDTTPCCFAYIARPLPRAHIKEYFYTSGKCSNPAVVFVTRKNRQVCANPEKKWVREYINSLEMS
In the case of B1, in the series with GPR75 (setting [9]), the “Ca2+ mobilization” value is listed as “stimulation” and the “inositol triphosphate (IP3)” value is “increase”.
